From ChEMBL document CHEMBL3039007, “Structure-based identification of OATP1B1/3 inhibitors” (Mol Pharmacol, 2013)

What was measured:
[1] = biological target: T1, Solute carrier organic anion transporter family member 1B3 (Homo sapiens, UniProt Q9NPD5); details: chinese hamster, cho, 10 µM
T1 sequence (Q9NPD5 whole entry): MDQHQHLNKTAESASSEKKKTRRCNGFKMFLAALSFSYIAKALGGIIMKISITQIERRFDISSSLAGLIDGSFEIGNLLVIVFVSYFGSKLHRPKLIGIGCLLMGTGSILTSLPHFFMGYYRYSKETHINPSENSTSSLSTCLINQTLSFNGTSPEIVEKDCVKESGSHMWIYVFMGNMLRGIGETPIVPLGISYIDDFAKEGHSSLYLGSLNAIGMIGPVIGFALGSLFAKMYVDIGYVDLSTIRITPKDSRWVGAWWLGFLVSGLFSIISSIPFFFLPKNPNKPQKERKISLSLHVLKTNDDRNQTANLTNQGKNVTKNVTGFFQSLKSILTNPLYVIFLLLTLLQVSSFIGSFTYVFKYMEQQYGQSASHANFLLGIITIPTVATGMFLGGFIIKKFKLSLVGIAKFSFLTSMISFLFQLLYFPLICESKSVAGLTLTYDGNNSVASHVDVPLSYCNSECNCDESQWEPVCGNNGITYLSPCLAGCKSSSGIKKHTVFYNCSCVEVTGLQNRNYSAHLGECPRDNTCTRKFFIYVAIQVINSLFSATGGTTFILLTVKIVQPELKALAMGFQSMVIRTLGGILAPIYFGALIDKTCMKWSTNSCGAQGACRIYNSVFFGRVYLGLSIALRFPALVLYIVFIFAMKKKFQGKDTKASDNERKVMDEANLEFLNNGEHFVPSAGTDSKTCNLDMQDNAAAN

[2] = biological target: T2, Solute carrier organic anion transporter family member 1B1 (Homo sapiens, UniProt Q9Y6L6); details: chinese hamster, cho, 10 µM
T2 sequence (Q9Y6L6 whole entry): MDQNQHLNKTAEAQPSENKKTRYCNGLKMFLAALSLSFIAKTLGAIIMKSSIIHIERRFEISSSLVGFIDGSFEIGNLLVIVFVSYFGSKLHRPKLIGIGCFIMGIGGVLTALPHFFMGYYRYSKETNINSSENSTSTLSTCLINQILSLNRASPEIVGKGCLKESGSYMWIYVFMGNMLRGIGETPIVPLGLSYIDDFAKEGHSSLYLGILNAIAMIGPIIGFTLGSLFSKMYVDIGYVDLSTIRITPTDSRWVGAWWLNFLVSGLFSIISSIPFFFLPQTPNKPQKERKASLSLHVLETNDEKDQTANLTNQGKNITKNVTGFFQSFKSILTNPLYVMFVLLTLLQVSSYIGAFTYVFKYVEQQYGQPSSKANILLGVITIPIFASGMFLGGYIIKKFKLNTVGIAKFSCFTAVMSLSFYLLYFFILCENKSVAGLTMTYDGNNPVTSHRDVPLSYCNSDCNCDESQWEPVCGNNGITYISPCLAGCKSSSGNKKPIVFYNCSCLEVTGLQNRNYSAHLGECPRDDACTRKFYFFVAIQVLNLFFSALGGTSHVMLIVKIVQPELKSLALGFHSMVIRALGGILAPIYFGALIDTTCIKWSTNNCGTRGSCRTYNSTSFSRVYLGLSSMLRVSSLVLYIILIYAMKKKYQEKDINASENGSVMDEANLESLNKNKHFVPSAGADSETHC

COc1cc(OC)c2c(c1)O[C@H](c1ccc(OC)c(OC)c1)[C@@H](O)C2
residual activity [1]: 103.7%
residual activity [2]: 123.7%

CS(C)(=O)=O [DIMETHYL SULFONE]
residual activity [1]: 102.7%
residual activity [2]: 115.1%

COc1cc(NS(=O)(=O)c2ccc(N)cc2)ncn1 [SULFAMONOMETHOXINE]
residual activity [1]: 105.3%
residual activity [2]: 109.8%

CNCCCN1c2ccccc2CCc2ccccc21.Cl [DESIPRAMINE HYDROCHLORIDE]
residual activity [1]: 96.51%
residual activity [2]: 55.55%

O=c1c(O)cccc2c([C@H]3Oc4cc(O)cc(O)c4C[C@H]3O)cc(O)c(O)c12 [THEAFLAVANIN]
residual activity [1]: 85.59%
residual activity [2]: 60%

CC1(C)S[C@@H]2[C@H](NC(=O)COc3ccccc3)C(=O)N2[C@H]1C(=O)[O-].[K+] [PENICILLIN V POTASSIUM]
residual activity [1]: 108.8%
residual activity [2]: 91.66%

O=c1cc(-c2ccc(O)cc2)oc2cc(O)cc(O)c12 [APIGENIN]
residual activity [1]: 134.2%
residual activity [2]: 84.2%

COc1cc2ccc(=O)oc2cc1O [SCOPOLETIN]
residual activity [1]: 99.95%
residual activity [2]: 87.31%

CCOC(=O)[N-]c1cn(N2CCOCC2)n[o+]1 [MOLSIDOMINE]
residual activity [1]: 97.14%
residual activity [2]: 70.9%

COC1=C[C@@H]2[C@@H]3Cc4ccc(OC)c(O)c4[C@]2(CCN3C)CC1=O [SINOMENINE]
residual activity [1]: 68.46%
residual activity [2]: 105.5%

CCc1cccc(C)c1N(C(=O)CCl)C(C)COC (configuration not stated) [METOLACHOR]
residual activity [1]: 101.7%
residual activity [2]: 93.33%

COc1ccc(-c2cc(=O)c3ccc(OC)cc3o2)cc1 [4,7-DIMETHOXYFLAVONE]
residual activity [1]: 87.07%
residual activity [2]: 91.89%

Br.COC(=O)C1=CCCN(C)C1 [ARECOLINE HYDROBROMIDE]
residual activity [1]: 103.7%
residual activity [2]: 112.6%

CN1CCc2c(c3ccccc3n2Cc2ccccc2)C1.CN1CCc2c(c3ccccc3n2Cc2ccccc2)C1.O=S(=O)(O)c1cccc2c(S(=O)(=O)O)cccc12
residual activity [1]: 77.15%
residual activity [2]: 69.52%

COc1ccc2c(c1)CC[C@@H]1[C@@H]2CC[C@]2(C)[C@@H](O)CC[C@@H]12 [ESTRADIOL METHYL ETHER]
residual activity [1]: 110%
residual activity [2]: 137.4%

COc1cc2c(cc1OC)[C@@H]1C(=O)c3ccc4c(c3O[C@@H]1CO2)C=CC(C)(C)O4 [DEGUELIN]
residual activity [1]: 75.69%
residual activity [2]: 99.89%

CC1(C)C(=O)C=C[C@]2(C)[C@H]3CC[C@@]4(C)[C@H](c5ccoc5)OC(=O)[C@H]5O[C@]54[C@]3(C)C=C[C@@H]12
residual activity [1]: 75.29%
residual activity [2]: 56.92%

O=c1cc(-c2ccccc2)oc2c(O)c(O)ccc12 [7,8-DIHYDROXYFLAVONE]
residual activity [1]: 140.6%
residual activity [2]: 107.3%

NC(=O)NCCC[C@H](N)C(=O)O [L-CITRULLINE]
residual activity [1]: 119.7%
residual activity [2]: 135.1%

N=C(N)NCCCCNC(=N)N.O=S(=O)(O)O [ARCAINE SULFATE]
residual activity [1]: 96.72%
residual activity [2]: 78.37%

Oc1cc(O)c2c(c1)O[C@H](c1ccc(O)c(O)c1)[C@H](O)C2 [(-)-EPICATECHIN]
residual activity [1]: 77.92%
residual activity [2]: 80.37%

O=C(O)c1cc(O)c2cccc(O)c2n1 [XANTHURENATE]
residual activity [1]: 99.4%
residual activity [2]: 115.8%

O=[N+]([O-])c1cc(O)c(O)c([N+](=O)[O-])c1 [3,5-DINITROCATECHOL (OR-486)]
residual activity [1]: 75.38%
residual activity [2]: 38.63%

CN(C)CCCO[C@@H]1[C@H]2OC(C)(C)O[C@H]2O[C@@H]1[C@H](O)CO [AMIPRILOSE]
residual activity [1]: 95.1%
residual activity [2]: 91.07%

CC(C)[N+](C)(CCOC(=O)C1c2ccccc2Oc2ccccc21)C(C)C.[Br-] [PROPANTHELINE BROMIDE]
residual activity [1]: 110.4%
residual activity [2]: 110.4%

CCCCCCc1ccc(O)cc1O.Nc1c2ccccc2nc2ccccc12 [ACRISORCIN]
residual activity [1]: 120.2%
residual activity [2]: 70.31%

CC1=CC(=O)[C@H]2C(C)(C)CCC[C@]2(C)[C@@]1(O)CCc1ccoc1
residual activity [1]: 78.78%
residual activity [2]: 48.25%

COC(=O)[C@@H]1OC(=O)[C@H]2O[C@]23[C@@]2(C)[C@H](CC[C@@]13C)[C@@]1(C)[C@@H](OC(C)=O)C[C@@H](OC(C)=O)C(C)(C)[C@@H]1C[C@@H]2O
residual activity [1]: 72.87%
residual activity [2]: 66.58%

Oc1ccc(/C=C/c2cc(O)cc(O)c2)cc1 [RESVERATROL]
residual activity [1]: 116.7%
residual activity [2]: 157.6%

CCN1C[C@]2(COC)[C@H](O)C[C@H](OC)[C@@]34[C@@H]5C[C@@]6(O)[C@H](OC(=O)c7ccccc7)[C@@H]5[C@@](OC(C)=O)([C@@H]([C@H](OC)[C@H]23)[C@@H]14)[C@@H](O)[C@@H]6OC [ACONITINE]
residual activity [1]: 85.31%
residual activity [2]: 65.77%

O=C(O)CCC(=O)c1ccc(-c2ccccc2)cc1 [FENBUFEN]
residual activity [1]: 86.33%
residual activity [2]: 172.9%

C[C@]12CC[C@@H]3c4ccc(OCc5ccccc5)cc4CC[C@H]3[C@@H]1C[C@@H](O)[C@@H]2O
residual activity [1]: 102.7%
residual activity [2]: 100%

C=C[C@H]1CN2CC[C@H]1C[C@H]2[C@H](OC(=O)OCC)c1ccnc2ccc(OC)cc12 [QUININE ETHYLCARBONATE]
residual activity [1]: 64.19%
residual activity [2]: 58.74%

CC(=O)O[C@H]1C[C@@H](OC(C)=O)C(C)(C)[C@@H]2CC(=O)[C@]3(C)[C@H](CC[C@@]4(C)[C@H](c5ccoc5)OC(=O)[C@H]5O[C@]543)[C@@]12C
residual activity [1]: 72.19%
residual activity [2]: 55.58%

CC1(C)S[C@@H]2[C@H](NC(=O)[C@H](NC(=O)N3CCNC3=O)c3ccccc3)C(=O)N2[C@H]1C(=O)[O-].[Na+] [AZLOCILLIN SODIUM]
residual activity [1]: 85.12%
residual activity [2]: 96.91%

CC[S+]([O-])CCSP(=O)(OC)OC (configuration not stated) [OXDEMETONMETHYL]
residual activity [1]: 94.08%
residual activity [2]: 116.8%

CC(C)C[C@H]1C(=O)N2CCC[C@H]2[C@]2(O)O[C@](NC(=O)[C@@H]3C=C4c5cccc6[nH]c(Br)c(c56)C[C@H]4N(C)C3)(C(C)C)C(=O)N12.CS(=O)(=O)O [BROMOCRIPTINE MESYLATE]
residual activity [1]: 84.69%
residual activity [2]: 67.37%

COc1ccnc(C[S+]([O-])c2nc3ccc(OC(F)F)cc3[nH]2)c1OC (configuration not stated) [PANTOPRAZOLE]
residual activity [1]: 79.12%
residual activity [2]: 81.37%

Cc1cc(NC(=O)C2=C(O)c3ccccc3S(=O)(=O)N2C)no1 [ISOXICAM]
residual activity [1]: 86.6%
residual activity [2]: 111.2%

Nc1cc(N2CCCCC2)nc(N)[n+]1[O-] [MINOXIDIL]
residual activity [1]: 92.39%
residual activity [2]: 93.9%

CC[N+](CC)(CC)CCOc1cccc(OCC[N+](CC)(CC)CC)c1OCC[N+](CC)(CC)CC.[I-].[I-].[I-] [GALLAMINE TRIETHIODIDE]
residual activity [1]: 79.25%
residual activity [2]: 91.38%

COc1c2ccoc2nc2c(OC)c(OCC(O)C(C)(C)O)ccc12 (configuration not stated) [EVOXINE]
residual activity [1]: 94.63%
residual activity [2]: 94%

CCOc1ccc(C(=O)c2ccc(OC)c(O)c2O)cc1 [2,3-DIHYDROXY-4-METHOXY-4'-ETHOXYBENZOPHENONE]
residual activity [1]: 102.2%
residual activity [2]: 172.8%

C[C@@H]1C[C@H]2CC(=O)[C@H]3CCCN4CCCC2[C@]34C1.[O-][Cl+3]([O-])([O-])O (some centres not stated)
residual activity [1]: 106.7%
residual activity [2]: 104.6%

CN1Cc2c(ccc3c2OCO3)C2C(O)Cc3cc4c(cc3C21)OCO4 (stereo not drawn) [CHELIDONINE (+)]
residual activity [1]: 82.29%
residual activity [2]: 59.5%

C=C(C)[C@H]1Cc2c(ccc3c(=O)c4c(oc23)COc2cc(OC)c(OC)cc2-4)O1 [DEHYDROROTENONE]
residual activity [1]: 92.82%
residual activity [2]: 113.5%
